Species: Rattus norvegicus
Experiment: Open TG-GATES - Regimen: Daily Repeat
Format: toxicity, organism-based, Sprague-Dawley
Parameters: regimen Daily Repeat, gender Male, age 6 weeks
Settings: in vivo, po, route gavage; for gamma-GTP / ALP / ALT / AST / BUN / CRE / Ca / DBIL / GLC / IP / K / LDH / Na / PL / RALB / TBIL / TC / TG / TP: tissue Plasma; for APTT / Bas / Eos / Fbg / Hb / Ht / Lym / MCH / MCHC / MCV / Mono / Neu / PT / Plat / RBC / Ret / WBC: tissue Blood; for KIDNEY_L / KIDNEY_R / KIDNEY_TOTAL: tissue Kidney; for LIVER: tissue Liver
[1] = 10 mg/kg, 72 h, dose level Low, time 3 day
[2] = 10 mg/kg, […], dose level Low, time 7 day
[3] = 10 mg/kg, […], dose level Low, time 14 day
[4] = 10 mg/kg, […], dose level Low, time 28 day

`CSc1ccc2c(c1)N(CCC1CCCCN1C)c1ccccc1S2` (centres undefined) [THIORIDAZINE] showed a gamma-GTP (0 mg/kg, […], dose level Control, time 28 day) of 1.4 IU/L, a TERMINAL_BW [1] of 239 g and an APTT [1] of 16.3 s. The Bas [1] was 0%, the Eos [1] was 1% and the Fbg [1] was 219.4 mg/dL. It also gave a Hb [1] of 13.5 g/dL, a Ht [1] of 40.6% and a Lym [1] of 81%. It also gave an MCH [1] of 21.2 pg, an MCHC [1] of 33.3% and an MCV [1] of 63.6 fL. For the same molecule, the Mono [1] was 5.8%, the Neu [1] was 12.4% and the PT [1] was 11.9 s. For the same molecule, the Plat [1] was 107.3 x10_4/uL, the RBC [1] was 638.4 x10_4/ul and the Ret [1] was 8.8%. The WBC [1] was 136.6 x10_2/uL, the KIDNEY_L [1] was 1.1 g and the KIDNEY_R [1] was 1.1 g. The KIDNEY_TOTAL [1] was 2.2 g, the LIVER [1] was 12.5 g and the ALP [1] was 797.8 IU/L. It also gave an ALT [1] of 35.6 IU/L, an AST [1] of 62.2 IU/L and a BUN [1] of 17.2 mg/dL. For the same molecule, the CRE [1] was 0.5 mg/dL, the Ca [1] was 11 mg/dL and the DBIL [1] was 0.042 mg/dL. It also gave a GLC [1] of 193.2 mg/dL, an IP [1] of 9 mg/dL and a K [1] of 4.7 meq/L. It also gave an LDH [1] of 82 IU/L, a Na [1] of 138.2 meq/L and a PL [1] of 163 mg/dL. The RALB [1] was 3.9 g/dL, the TBIL [1] was 0.3 mg/dL and the TC [1] was 81.8 mg/dL. For the same molecule, the TG [1] was 137 mg/dL, the TP [1] was 5.9 g/dL and the gamma-GTP [1] was 1.6 IU/L. The TERMINAL_BW [2] was 268.9 g, the TERMINAL_BW [3] was 333.8 g and the TERMINAL_BW [4] was 403.9 g. The APTT [2] was 16.8 s, the Bas [2] was 0% and the Eos [2] was 0.8%. The Fbg [2] was 223 mg/dL, the Hb [2] was 13.9 g/dL and the Ht [2] was 41.4%. It also gave a Lym [2] of 79.2%, an MCH [2] of 20.6 pg and an MCHC [2] of 33.5%. The MCV [2] was 61.5 fL, the Mono [2] was 7% and the Neu [2] was 13.2%. The PT [2] was 12.1 s, the Plat [2] was 118.8 x10_4/uL and the RBC [2] was 674.2 x10_4/ul. For the same molecule, the Ret [2] was 5.2%, the WBC [2] was 127.5 x10_2/uL and the APTT [3] was 17.3 s. For the same molecule, the Bas [3] was 0%, the Eos [3] was 0.8% and the Fbg [3] was 237.8 mg/dL. The Hb [3] was 14.7 g/dL, the Ht [3] was 43.8% and the Lym [3] was 84.4%. It also gave an MCH [3] of 20.8 pg, an MCHC [3] of 33.6% and an MCV [3] of 62.1 fL. For the same molecule, the Mono [3] was 5.8%, the Neu [3] was 9% and the PT [3] was 11.7 s. The Plat [3] was 115 x10_4/uL, the RBC [3] was 706.6 x10_4/ul and the Ret [3] was 4.2%. The WBC [3] was 167.8 x10_2/uL, the APTT [4] was 17.6 s and the Bas [4] was 0%. The Eos [4] was 1%, the Fbg [4] was 233 mg/dL and the Hb [4] was 15.4 g/dL. It also gave a Ht [4] of 45.5%, a Lym [4] of 83.6% and an MCH [4] of 19.8 pg. The MCHC [4] was 33.9%, the MCV [4] was 58.3 fL and the Mono [4] was 6.2%. For the same molecule, the Neu [4] was 9.6%, the PT [4] was 12.1 s and the Plat [4] was 121.4 x10_4/uL. It also gave an RBC [4] of 780.6 x10_4/ul, a Ret [4] of 2.6% and a WBC [4] of 150 x10_2/uL. For the same molecule, the KIDNEY_L [2] was 1.1 g, the KIDNEY_R [2] was 1.1 g and the KIDNEY_TOTAL [2] was 2.3 g. For the same molecule, the KIDNEY_L [3] was 1.3 g, the KIDNEY_R [3] was 1.4 g and the KIDNEY_TOTAL [3] was 2.7 g. For the same molecule, the KIDNEY_L [4] was 1.5 g, the KIDNEY_R [4] was 1.5 g and the KIDNEY_TOTAL [4] was 3 g. The LIVER [2] was 13.2 g, the LIVER [3] was 15.4 g and the LIVER [4] was 17.2 g. For the same molecule, the ALP [2] was 792.4 IU/L, the ALT [2] was 34 IU/L and the AST [2] was 61 IU/L. For the same molecule, the BUN [2] was 18.4 mg/dL, the CRE [2] was 0.5 mg/dL and the Ca [2] was 11.1 mg/dL. For the same molecule, the DBIL [2] was 0 mg/dL, the GLC [2] was 197.2 mg/dL and the IP [2] was 8.3 mg/dL. It also gave a K [2] of 4.8 meq/L, an LDH [2] of 84 IU/L and a Na [2] of 139.4 meq/L. The PL [2] was 172.8 mg/dL, the RALB [2] was 4 g/dL and the TBIL [2] was 0.3 mg/dL. The TC [2] was 88.4 mg/dL, the TG [2] was 118.6 mg/dL and the TP [2] was 6 g/dL. It also gave a gamma-GTP [2] of 1.2 IU/L, an ALP [3] of 779.6 IU/L and an ALT [3] of 33.6 IU/L. For the same molecule, the AST [3] was 62.8 IU/L, the BUN [3] was 20.4 mg/dL and the CRE [3] was 0.6 mg/dL. It also gave a Ca [3] of 10.9 mg/dL, a DBIL [3] of 0.002 mg/dL and a GLC [3] of 178.6 mg/dL. The IP [3] was 7.8 mg/dL, the K [3] was 5.2 meq/L and the LDH [3] was 110.2 IU/L. For the same molecule, the Na [3] was 139.4 meq/L, the PL [3] was 167.8 mg/dL and the RALB [3] was 4.1 g/dL. The TBIL [3] was 0.3 mg/dL, the TC [3] was 81.2 mg/dL and the TG [3] was 158 mg/dL. For the same molecule, the TP [3] was 6.3 g/dL, the gamma-GTP [3] was 1.2 IU/L and the ALP [4] was 564 IU/L. For the same molecule, the ALT [4] was 32.4 IU/L, the AST [4] was 63.4 IU/L and the BUN [4] was 21.2 mg/dL. The CRE [4] was 0.6 mg/dL, the Ca [4] was 10.7 mg/dL and the DBIL [4] was 0 mg/dL. The GLC [4] was 180.8 mg/dL, the IP [4] was 7.3 mg/dL and the K [4] was 4.3 meq/L. It also gave an LDH [4] of 131.8 IU/L, a Na [4] of 140.4 meq/L and a PL [4] of 162.4 mg/dL. For the same molecule, the RALB [4] was 4.2 g/dL, the TBIL [4] was 0.2 mg/dL and the TC [4] was 74 mg/dL. The TG [4] was 177.2 mg/dL and the TP [4] was 6.4 g/dL.

Source: ChEMBL document CHEMBL3885861, “Open TG-GATES”
